The values that follow come from patent US9018248B2, “Fatty acid derivatives of catechins and methods of their use” (Genesis Group Inc., priority 2010, dated 2015).

One assay relates to iNOS mRNA. In words: iNOS mRNA expression in LPS-stimulated RAW264.7 macrophages (RT-PCR). The conditions noted are these: FIG. 12. Type of assay: cell-based, mouse. As to the method: (§1) Total RNA was isolated from mouse macrophage RAW264.7 cell using Trizol Reagent according to the manufacturer's instructions. Changes in the steady-state concentration of mRNA in iNOS, COX-2, and β-actin (control) were assessed by RT-PCR. Total RNA (2 μg) was converted to cDNA in a series of standard 10 μl reverse transcription reactions. DNA amplification was carried out in “Ready To Go” PCR Beads. The initial conditions were 95° C. for 5 min. Amplification 30 cycles of iNOS were 95° C. for 40 s, 65° C. for 60 s, and 72° C. for 2 min, followed by a 10 min extension at 72° C. The thermal cycle conditions of COX-2 were initiated at 95° C. for […], then 30 cycles of amplification (94° C. for 45 s, 55° C. for 60 s, and 72° C. for 2 min) were performed followed by 10 min extension at 72° C. The PCR products were separated by electrophoresis on a 1% agarose gel and visualized by ethidium bromide staining. Amplification of β-actin served as a control for sample loading and integrity. PCR was performed on the cDNA using the following sense and antisense primer: iNOS, forward primer 5′-[…]-[…]-3′ (2944-2968), reverse primer 5′-[…]-[…]-3′ (3419-3443); COX-2, forward primer 5′-[…]-[…]-3′ (1094-1117), reverse primer 5′-[…]-3′ (1931-1954); β-actin, forward primer 5′-[…]-3′, reverse primer 5′-[…]-3′. Confirmation of the correct amplicons was obtained by direct DNA sequencing of the PCR products.

The test system of assay [1] is LPS-induced NO production. In words: LPS-induced NO production in RAW 264.7 macrophage (Griess reaction). Format: cell-based, murine. The conditions noted are these: LPS-stimulated RAW264.7 macrophages. As to the method:
RAW 264.7 cells were cultured in Rosewell Park Memorial Institute (RPMI) 1640 media (without phenol red) supplemented with 10% endotoxin-free, heat-inactivated fetal calf serum, 100 units/ml penicillin, and 100 μg/ml streptomycin. When the cells reached a density of 2-3×10^6 cells/ml, they were activated by incubation in a medium containing E. coli lipopolysaccharide (LPS) (100 ng/ml). Various concentrations of compounds of the disclosure in dimethyl sulphoxide (DMSO) were added together with LPS. Cells were treated with 0.05% DMSO as the vehicle control. The stimulated murine macrophage cell line RAW 264.7 cells were washed with PBS and lysed in an ice-cold RIPA buffer (Tris-HCl, pH 7.2, 25 mM; 0.1% SDS; 1% Triton X-100; 1% sodium deoxycholate; 0.15 M NaCl; 1 mM EDTA) containing 1 mM phenylmethyl sulphonyl fluoride (PMSF), 10 μg/mL aprotinin, 1 mM sodium ortho-vanadate, and 5 μg/mL leupeptin. Protein concentrations were determined using the BCA method (Pierce, Rockford, Ill.). The samples (50 μg of protein) were mixed with 5-fold of sample buffer containing 0.3 M Tris-HCl (pH 6.8), 25% 2-mercaptoethanol, 12% sodium dodecyl sulphate (SDS), 25 mM EDTA, 20% glycerol, and 0.1% bromophenol blue. The mixtures were boiled at 100° C. for 5 min, prerun on a stacking gel, and then resolved by 12% SDS-polyacrylamide minigels at a constant current of 20 mA. For western blot, proteins on the gel were electro-transferred onto a […] immobile polyvinylidene fluoride (PVDF) membrane with a transfer buffer composed of 25 mM Tris-HCl (pH 8.9), 192 mM glycine, and 20% methanol, as described by Pan et al. (2000). Membrane blocking was then carried out at room temperature for 1 h in blocking solution (20 mM Tris-HCl pH 7.4, 125 mM NaCl, 0.2% Tween 20, 1% bovine serum albumin, and 0.1% sodium azide). The membrane was incubated with the primary antibody of iNOS and COX-2 at 4° C. overnight. The membranes were subsequently probed with selected IgG antibody conjugated to horseradish peroxidase (Transduction Laboratories, Lexington, Ky.) and visualized using enhanced chemiluminescence (ECL, Amersham). The densities of the bands were quantitated using a densitometer (AlphaImager 2200 System). All the membranes were stripped and reprobed for β-actin (Sigma Chemical Co., St. Louis, Mo.) as loading control. […] The inhibition of iNOS induction by compounds of the disclosure may be due to down regulation of iNOS gene expression. […] (7b) Inhibition Against LPS-Induced NO Production in RAW 264.7 Macrophage The LPS-induced NO production by the macrophages was determined as nitrite concentration in the culture medium according to the Griess reaction. […] The absorbance of the mixture at 550 nm was measured with an ELISA plate reader (Dynatech MR-7000; Dynatech Laboratories, Chantilly, Va., USA). […]

Another assay relates to COX-2 mRNA. In words: COX-2 mRNA expression in LPS-stimulated RAW264.7 macrophages (RT-PCR). Type of assay: cell-based, mouse. The conditions noted are these: FIG. 12. The protocol: as §1
Another assay relates to PGE2 production. Put plainly: PGE2 production in LPS-stimulated RAW264.7 macrophages (EIA). Format: cell-based, mouse. The conditions noted are these: FIG. 10. From the text:
The level of PGE2 released into the culture medium was quantified by a specific enzyme immunoassay (EIA) method using a ACE™ EIA kit according to the manufacturer's instructions. FIG. 10 illustrates that the production of the inflammatory mediator PGE2 was inhibited by 10a (EGCG-DPA). The EGCG ester 10a has improved lipophilicity and cellular absorption, and therefore provides synergistic effects with respect to the DPA (a competitive inhibitor against the omega-6 fatty acid arachidonic acid) for the COX enzymes) and EGCG (COX-2 inhibitor) moieties.

The test system of the next assay is COX-2. Put plainly: COX-2 protein expression in LPS-stimulated RAW 264.7 macrophages (western blot). The conditions noted are these: LPS 100 ng/ml, RAW 264.7, western blot. Format: cell-based, murine. The protocol:
RAW 264.7 cells were cultured in Rosewell Park Memorial Institute (RPMI) 1640 media (without phenol red) supplemented with 10% endotoxin-free, heat-inactivated fetal calf serum, 100 units/ml penicillin, and 100 μg/ml streptomycin. When the cells reached a density of 2-3×10^6 cells/ml, they were activated by incubation in a medium containing E. coli lipopolysaccharide (LPS) (100 ng/ml). Various concentrations of compounds of the disclosure in dimethyl sulphoxide (DMSO) were added together with LPS. Cells were treated with 0.05% DMSO as the vehicle control. The stimulated murine macrophage cell line RAW 264.7 cells were washed with PBS and lysed in an ice-cold RIPA buffer (Tris-HCl, pH 7.2, 25 mM; 0.1% SDS; 1% Triton X-100; 1% sodium deoxycholate; 0.15 M NaCl; 1 mM EDTA) containing 1 mM phenylmethyl sulphonyl fluoride (PMSF), 10 μg/mL aprotinin, 1 mM sodium ortho-vanadate, and 5 μg/mL leupeptin. Protein concentrations were determined using the BCA method (Pierce, Rockford, Ill.). The samples (50 μg of protein) were mixed with 5-fold of sample buffer containing 0.3 M Tris-HCl (pH 6.8), 25% 2-mercaptoethanol, 12% sodium dodecyl sulphate (SDS), 25 mM EDTA, 20% glycerol, and 0.1% bromophenol blue. The mixtures were boiled at 100° C. for 5 min, prerun on a stacking gel, and then resolved by 12% SDS-polyacrylamide minigels at a constant current of 20 mA. For western blot, proteins on the gel were electro-transferred onto a […] immobile polyvinylidene fluoride (PVDF) membrane with a transfer buffer composed of 25 mM Tris-HCl (pH 8.9), 192 mM glycine, and 20% methanol, as described by Pan et al. (2000). Membrane blocking was then carried out at room temperature for 1 h in blocking solution (20 mM Tris-HCl pH 7.4, 125 mM NaCl, 0.2% Tween 20, 1% bovine serum albumin, and 0.1% sodium azide). The membrane was incubated with the primary antibody of iNOS and COX-2 at 4° C. overnight. The membranes were subsequently probed with selected IgG antibody conjugated to horseradish peroxidase (Transduction Laboratories, Lexington, Ky.) and visualized using enhanced chemiluminescence (ECL, Amersham). The densities of the bands were quantitated using a densitometer (AlphaImager 2200 System). All the membranes were stripped and reprobed for β-actin (Sigma Chemical Co., St. Louis, Mo.) as loading control. […] The inhibition of iNOS induction by compounds of the disclosure may be due to down regulation of iNOS gene expression. EGCG and compounds of the disclosure with antioxidant activities may inhibit the ROS/RNS-mediated activation of NF-κB, the transcription factor that promotes gene expression of iNOS. […] The difference in their ability to inhibit production of iNOS and COX-2 may be due to other mechanisms involved in addition to blocking the NF-κB signalling pathway. EGCG and its derivatives may also suppress the cytokine production by breaking down the mRNA and protein of iNOS and COX-2 to varied degrees. (7b) Inhibition Against LPS-Induced NO Production in RAW 264.7 Macrophage The LPS-induced NO production by the macrophages was determined as nitrite concentration in the culture medium according to the Griess reaction. The culture medium of the control and treated cells was collected and centrifuged. An aliquot (100 μL) of the supernatant was mixed with an equal volume of Griess reagent. The absorbance of the mixture at 550 nm was measured with an ELISA plate reader (Dynatech MR-7000; Dynatech Laboratories, Chantilly, Va., USA). […]
On the technique in general: A western blot detects proteins with antibodies after separation by electrophoresis.

For a further assay, the system named is iNOS. In words: iNOS protein expression in LPS-stimulated RAW 264.7 macrophages (western blot). Type of assay: cell-based, murine. The conditions noted are these: LPS 100 ng/ml, RAW 264.7, western blot; 20 and 40 μM for 1a-1c. As to the method: RAW 264.7 cells were cultured in Rosewell Park Memorial Institute (RPMI) 1640 media (without phenol red) supplemented with 10% endotoxin-free, heat-inactivated fetal calf serum, 100 units/ml penicillin, and 100 μg/ml streptomycin. When the cells reached a density of 2-3×10^6 cells/ml, they were activated by incubation in a medium containing E. coli lipopolysaccharide (LPS) (100 ng/ml). Various concentrations of compounds of the disclosure in dimethyl sulphoxide (DMSO) were added together with LPS. Cells were treated with 0.05% DMSO as the vehicle control. The stimulated murine macrophage cell line RAW 264.7 cells were washed with PBS and lysed in an ice-cold RIPA buffer (Tris-HCl, pH 7.2, 25 mM; 0.1% SDS; 1% Triton X-100; 1% sodium deoxycholate; 0.15 M NaCl; 1 mM EDTA) containing 1 mM phenylmethyl sulphonyl fluoride (PMSF), 10 μg/mL aprotinin, 1 mM sodium ortho-vanadate, and 5 μg/mL leupeptin. Protein concentrations were determined using the BCA method (Pierce, Rockford, Ill.). The samples (50 μg of protein) were mixed with 5-fold of sample buffer containing 0.3 M Tris-HCl (pH 6.8), 25% 2-mercaptoethanol, 12% sodium dodecyl sulphate (SDS), 25 mM EDTA, 20% glycerol, and 0.1% bromophenol blue. The mixtures were boiled at 100° C. for 5 min, prerun on a stacking gel, and then resolved by 12% SDS-polyacrylamide minigels at a constant current of 20 mA. For western blot, proteins on the gel were electro-transferred onto a […] immobile polyvinylidene fluoride (PVDF) membrane with a transfer buffer composed of 25 mM Tris-HCl (pH 8.9), 192 mM glycine, and 20% methanol, as described by Pan et al. (2000). […] The densities of the bands were quantitated using a densitometer (AlphaImager 2200 System). […] (7b) Inhibition Against LPS-Induced NO Production in RAW 264.7 Macrophage The LPS-induced NO production by the macrophages was determined as nitrite concentration in the culture medium according to the Griess reaction. […] The absorbance of the mixture at 550 nm was measured with an ELISA plate reader (Dynatech MR-7000; Dynatech Laboratories, Chantilly, Va., USA). […]

Consider EGCG-docosapentaenoate [Compound 10a], for which the “Inhibition of iNOS mRNA expression” value in the assay on iNOS mRNA was “inhibited”. For the same substance, the “Inhibition of NO production (in words)” value in assay [1] is reported as “inhibited by 10a (EGCG-DPA) more effectively than DPA”. In addition, in the assay with COX-2 mRNA, the “Inhibition of COX-2 mRNA expression” value was “inhibited”. In addition, the “Inhibition of PGE2 production” value in the assay with PGE2 production is “inhibited”. In the assay on COX-2, the “Inhibition of COX-2 protein expression” value is given as “inhibited”. Besides, the “Inhibition of iNOS protein expression” value with iNOS was “inhibited”.
